Test results as given in US8829033B2, “N-benzylamide substituted derivatives of 2-(acylamido)acetic acid and 2-(acylamido)propionic acids: potent neurological agents” (The University of North Carolina at Chapel Hill, priority 2009, dated 2014).
Where two headings read alike, the source gives them in different places.

Experiments:
Mice [1] = details: cited from earlier work
Rat [2] = details: cited from earlier work
Rats = assay: Hippocampal kindling test, rats (ip); assay type: in vivo; details: rats; for ED50: Rattus norvegicus, ip, read-out: Hippocampal Kindled Rats (ip) ED50 (interval)
Method: The kindling model provides a tool to predict a test compound's activity in complex partial seizures.
Male albino Sprague-Dawley rats (n=8) are kindled to a Stage 5 behavioral seizure. They are treated with an appropriate i.p. dose of the test compound after a 1-week, stimulus-free period. The test compound is evaluated for its effect on kindled motor seizures (seizures scores of 4 and 5), limbic behavior seizures (seizure scores between 1 and 3) and after-discharge duration. After 15 min, each rat is stimulated every 30 min for 3-4 h. Following each stimulation, individual seizure scores and after-discharge duration are recorded. The group mean and standard error of the mean (SEM) are calculated for each parameter.

Mice [3] = assay: Formalin test (mice, ip); assay type: in vivo; details: duration of licking as percent of control, late phase
Method: Compounds of the present invention were active in treating pain in a formalin test carried out in accordance with standard techniques, as described in S. Hunskaar et al., J. Neurosci. Methods 14: 69-76 (1985). Briefly, 0.5% formalin is injected into the mouse hind paw to elicit a bi-phasic licking response, where the first acute phase is thought to correspond to the direct stimulation of peripheral fibers and the second (inflammatory) phase is caused by the release of inflammatory mediators.
Spinal/supraspinal plasticity of nociception is considered as a molecular basis for neuropathic pain particularly during the second (late) phase of the test (Dubuisson & Dennis, 1977; Coderre et al., 1990; Coderre & Melzack, 1992), during which most clinically used drugs against neuropathic pain are active.

Mice [4] = assay: Maximal electroshock seizure (MES) test, mice (ip); details: for Mice (ip) MES, ED50: Table b501, intraperitoneally;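 on all read-outs here: male albino CF No. 1 mice dosed ip, MES stimulus 50 mA at 60 Hz lasting 0.2 s, efficacy endpoint is loss of hind leg tonic extension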
Method: The maximal electroconvulsive shock (MES) test is regarded as a standard screen for anticonvulsant activity in terms of inhibition of seizure spread in generalized tonic-clonic seizures.
Groups of at least 8 male albino CF No. 1 mice or male albino Sprague-Dawley rats are treated with 10 mL/kg i.p. or 4 mL/kg p.o. of the test compound solution, respectively. The electrical stimulus in the MES test is 50 mA at 60 Hz for mice and 150 mA at 60 Hz for rats, both delivered for 0.2 sec. Abolition of the hind leg tonic extensor component of the seizure is used as the endpoint.

Mice [5] = assay: Neurological toxicity, rotorod test, mice (ip); assay type: in vivo; details: for Mice (ip) Tox, Td50: rotorod test
Method: (§1) Tests are conducted in groups of at least 8 mice or rats to determine the intrinsic neurotoxicity (neuromuscular impairment) after administration of the test compound by the route of administration to be used in the pharmacology studies. Neurotoxicity is determined in male CF No 1 mice by the rotarod procedure. Inability of the mouse to maintain its equilibrium in 3 trials during 1 min on this rotating rod (6 rpm) is used as an indication of such impairment. In Sprague-Dawley rats, minimal motor impairment (MMI) is determined by overt evidence of ataxia, abnormal gait, and stance.

Rat [6] = assay: Maximal electroshock seizure (MES) test, rat (po); assay type: in vivo; details: for ED50: Rattus norvegicus, read-out: Rat (po) MES, ED50
[7] = Neurological toxicity, rotorod test, mice (ip); assay type: in vivo; details: male, CF No 1, mouse, in vivo
Method: as §1

[8] = Behavioral toxicity, rat (po); assay type: in vivo; details: Sprague-Dawley, in vivo, po, read-out: Rat (po) Tox, TD50
Method: as §1

Rat [9] = assay: Behavioral toxicity, rat (po); assay type: in vivo; details: Table b501, orally, behavioral toxicity
Method: as §1

Mice [10] = assay: 6 Hz test, mice (ip); assay type: in vivo; details: Mus musculus, ip, intraperitoneally
[11] = rotorod test, read-out: Mice (ip) Tox, Td50

CCCC(CCC)C(=O)O [valproate]
Mice (ip) Mes, ED50 (Mice [1]; Ref 30, 16, 32): 270 [0.25] mg/kg | Mice (ip) PI (Mice [1]; Ref 32): 1.6 | Mice (ip) MES, ED50 (Mice [1]; reference drugs marked h): 270 [0.25] | Mice (ip) PI (Mice [1]; reference drugs marked h): 1.6 | Rat (po) MES, ED50 (Rat [2]; Ref 16, 32): 490 [0.5] mg/kg | Rat (po) PI (Rat [2]; Ref 32): 0.6 | Rat (po) MES, ED50 (Rat [2]; reference drugs marked h): 490 [0.5] | Rat (po) PI (Rat [2]; reference drugs marked h): 0.6 | ED50 (Rats): 214 mg/kg | Formalin Test (mice, ip) Inflammatory (%) (Mice [3]; dose 300 mg/kg): 67 (20) %

COC[C@@H](NC(C)=O)C(=O)NCc1ccc(COCc2cccc(F)c2)cc1 [(R)-18, (R)—N-4-(((3-Fluoro)benzyloxy)methyl)benzyl 2-Acetamido-3-methoxypropionamide]
Mice (ip) MES, ED50 (Mice [4]): >30, <100 [0.5] mg/kg | Mice (ip) Tox, Td50 (Mice [5]): >30, <100 [0.5] mg/kg

O=C1NC(=O)C(c2ccccc2)(c2ccccc2)N1 [phenytoin]
Rat (po) MES, ED50 (Rat [2]; Ref 16, 32): 30 [4.0] mg/kg | Rat (po) PI (Rat [2]; Ref 32): >100 | Rat (po) MES, ED50 (Rat [2]; reference drugs marked h): 30 [4] | Rat (po) PI (Rat [2]; reference drugs marked h): >100 | ED50 (Rats): 34 mg/kg | Preliminary Hippocampal Kindling Test (Rats) Seizure Score, Drug (Rats; after drug (pre-drug score in neighbouring column)): 3 | Formalin Test (mice, ip) Inflammatory (%) (Mice [3]; dose 6 mg/kg): 21 (5) %

COCCCc1ccc(CNC(=O)[C@@H](COC)NC(C)=O)cc1 [(R)-7]
ED50 (Rat [6]): 16 mg/kg | TD50 ([7]; read-out: Mice (ip) Tox, TD50): 62 mg/kg | TD50 [8]: > 500 mg/kg

COCc1ccc(CNC(=O)[C@@H](COC)NC(C)=O)cc1 [(R)-8]
ED50 (Rat [6]): 45 mg/kg | TD50 ([7]; read-out: Mice (ip) Tox, TD50): 180 mg/kg | TD50 [8]: > 500 mg/kg

COC[C@@H](NC(C)=O)C(=O)NCc1ccc(COc2cccc(F)c2)cc1 [(R)-16, (R)—N-4-((3-Fluorophenoxy)methyl)benzyl 2-Acetamido-3-methoxypropionamide]
Rat (po) PI (Rat [6]; Table b501, protective index (TD50/ED50)): >21 | Mice (ip) MES, ED50 (Mice [4]): 5.9 [0.25] mg/kg | Mice (ip) PI (Mice [4]; Table b501, ip, protective index (TD50/ED50)): 1.8 | Mice (ip) Tox, Td50 (Mice [5]): 10 [0.25] mg/kg

COC[C@@H](NC(C)=O)C(=O)NCc1ccc(CCc2cccc(F)c2)cc1 [(R)-13]
melting point: 134 to 136 °C | Mice (ip) MES, ED50 (Mice [4]): >10, <30 [0.5] mg/kg | TD50 [7, 11]: 30 to 100 mg/kg | Rat (po) Tox, TD50 (Rat [9]): >30 [1] mg/kg

COC[C@@H](NC(C)=O)C(=O)NCc1ccc(/C=C/c2cccc(F)c2)cc1 [(R)-14, (2-R,E)-N-4-(3-Fluorostyryl)benzyl 2-Acetamido-3-methoxypropionamide]
melting point: 206 to 208 °C | Mice (ip) MES, ED50 (Mice [4]): >30, <100 [0.5] mg/kg | ED50 (Mice [10]): < 30 mg/kg | TD50 [7, 11]: 100 to 300 mg/kg

COC[C@H](NC(C)=O)C(=O)NCc1ccc(OCc2cccc(F)c2)cc1 [(S)-10, (S)-2-Acetamido-N-(4-(3-fluorobenzyloxy)benzyl)-3-methoxypropanamide]
Mice (ip) Mes, ED50 (Mice [4]; Table b500, intraperitoneally): >300 mg/kg | Mice (ip) Tox, TD50 (Mice [5]; Table b500, rotorod test): >300 mg/kg
